Assay results taken from patent publication US20220089646A1 (THE UNIVERSITY OF QUEENSLAND, priority 2019, published 2022).
*1 amine or outer side, *2 acyl side, *3 side chain or, on linkers, in order; H or OH if unused. Where a SMILES comes first, the peptide text is derived from it. Bridges are numbered along the chain shown (N, C = ends). [ ]: non-standard residue; d: D form. NHCH2CMe2S = CC(C)(CN[*:1])S[*:2]

How the values were obtained:
KOP [1] = molecular target: T1, KOP (Homo sapiens, UniProt P41145); test: Inhibition of Forskolin-induced cAMP production in HEK-KOP cells (AlphaScreen, DP series); assay type: cell-based; details: for IC80: approximate IC80, 'EC anything' protocol; for cAMP response, HEK-KOP: concentration-response curve, % cAMP
Procedure: DP-7-11 and DP-7-12 were assessed for the ability to inhibit cAMP production in HEK-DOP and HEK KOP cells.
The HEK-293 DOP (HEK-DOP) and HEK-293 KOP (HEK-KOP) cell lines were cultured in a T75 flask, in Dulbeco's Modified Eagle's Medium (DMEM) complete with 10% (v/v) fetal bovine serum (FBS) and 1% (v/v) Geneticin. Cells were incubated in a humidified atmosphere of 37° C. (95% air and 5% CO2). Cells were passaged at 80-90% confluence and media was changed every two days.
Stimulation buffer and Lysis buffer were prepared fresh on the day of each assay. Stimulation buffer contained 19.5 mL Hanks buffered saline solution, Bovine serum albumin (BSA) 0.1% (w/v), 0.5 mM 3-Isobutyl-1-methylxanthine (IBMX) and 5 mM HEPES (4-(2-hydroxyethyl)-1-piperazineethanesulfonic acid). Lysis buffer contained 19 mL Mili-Q H2O, BSA 0.1% (w/v), 0.3% (v/v) 10% Tween-20, and 5 mM HEPES. Both buffers were adjusted to pH 7.4 with NaOH.
The cAMP standard dilution series was prepared from the 50 μM cAMP standard solution provided by the cAMP assay kit. The standard solution was vortexed before being serially diluted to provide a concentration range of 5×10^−6 M to 5×10^−11 M in ½ Log intervals.
For this assay, Forskolin was optimised at 50 μM/well. 25 mM stocks were used to prepare 0.2 mM Forskolin. The concentration of Forskolin prepared was 4 times the required concentration in the well to account for further dilution in the well. 0.1 mM Forskolin solution was then made from this and used to dilute the peptide solutions.
DP-7-11 and DP-7-12 provided in powder form and reconstituted to 10 mM stock solutions and diluted to 1 mM working stocks using Mili-Q H2O. Each peptide solution was serially diluted to give concentrations of 1×10^−6 to 3×10^−7 M with stimulation buffer.
Stimulation buffer was added to the 0.2 mM Forskolin solution in a 1:1 ratio to prepare the Forskolin only treatment solution. This was the positive control. Stimulation buffer was used as the negative control.
Cells were harvested from two T75 flasks on the day of experimentation. Identical protocol was used for both DOP and KOP cells. The cells were first removed from the incubator and washed with Versene®. The cells were then incubated in 2 mL of Versene® at 37° C. for 5 minutes. Following this, the mixture was made up to 5 mL with Versene® in a centrifuge tube. This was centrifuged at 1300 rpm for 2 minutes at 23° C. The supernatant was then decanted and the cells resuspended in 100 μL stimulation buffer for counting. A hemocytometer was used to count the cells. This assay required the concentration of cells to be 13300 cells/μL
This method was used to conduct all cAMP Alphascreen assays. The acceptor bead mixture consisted of acceptor beads and stimulation buffer mixed according to the ratio 1:35 given in the kit. From this, the acceptor beads mixture was used to prepare separate mixtures for the cAMP standard curve and for the treatment wells of the assay. For the treatment wells, the beads were mixed with cells in a 1:1 ratio. For the cAMP standard curve, the beads were mixed with more stimulation buffer in a 1:1 ratio. The donor bead mixture consisted of donor beads, biotinylated cAMP and lysis buffer mixed in the ratio 1:3:300.
The DP series compounds were assayed as follows: The assay was performed using a 96 well ½ area plate. The different cAMP standard solutions (3 μL/well) were plated in duplicate. The different concentrations of drug (3 μL/well), and control solutions (3 μL/well) were plated in triplicate. […]

KOP [2] = molecular target: T1, KOP; test: cAMP assay with naloxone in HEK-KOP cells; assay type: cell-based; details: naloxone 100 μM/well; for Mean cAMP response (FIG. 14): HEK-KOP, naloxone assay, peptide at approximate IC80; for Naloxone reversal of cAMP inhibition through KOP: p<0.01
Procedure: The preparation of buffers, cAMP standard curve, bead solutions were carried out identically to the agonist assay.
Forskolin had been optimised at 50 μM/well. Thus, the 25 mM stocks were used to prepare 300 μL of 0.3 mM Forskolin. The concentration of Forskolin prepared was 6 times the required concentration in the well to account for further dilution in the well. Forskolin solution was then made from this and used to dilute the drug solutions.
Approximate IC80 values were used for DP-7-11 and DP-7-12 to determine the ability of naloxone to reverse agonist inhibitory effect.
The desired concentration of naloxone was 100 μM/well. Thus, 100 μL of 600 μM naloxone was made up from 100 mM stock. This was 6 times the desired in-well concentration to account for further dilution in the well by Forskolin, peptide, cells and acceptor bead solutions.
Stimulation buffer was added to the 0.3 mM Forskolin solution to prepare the Forskolin only treatment solution as the positive control. Stimulation buffer used as the negative control.
The DP series compounds were assayed as follows: The different cAMP standard solutions (3 μL/well) were plated in duplicate. Naloxone solution was then plated (1 μL/well) for each treatment (DP-7-11, DP-7-12, Forskolin only and stimulation buffer) in triplicate. In the same way, stimulation buffer was plated (1 μL/well) for the same number of wells. This made up two sets of wells, antagonist and non-antagonist. Following this, the acceptor bead and cell mixture (3 μL/well) was added to the treatment wells. The plates were then covered and centrifuged at 280 g for 30 seconds before incubation on an orbital shaker for 30 minutes at room temperature. The acceptor bead mixture (3 μL/well) was then added to the cAMP standard curve wells, whilst the drug mixed with Forskolin solutions (3 μL/well) were added to the respective treatment wells in triplicate. Again, the plates were centrifuged at 280 g for 30 seconds, then covered and incubated on the orbital shaker for another 30 minutes. Finally, the donor bead mixture (10 μL/well) was added to each well. This was incubated at room temperature overnight on the orbital shaker.
The Ensight® Multimode Plate Reader was used to quantify the fluorescence units of each plate. Before reading, each plate was centrifuged at 280 g for 30 seconds. Using GraphPad Prism7® Software, cAMP concentrations were determined from the fluorescence data by fit spline/LOWESS analysis. The cAMP standard curve was used for interpolation at this point. The cAMP concentrations were then normalized to the highest cAMP concentration recorded and analyzed by one-way ANOVA for multiple comparisons. This analysis was corrected for multiple comparisons using Bonferroni. […]

T1 sequence (P41145 whole entry): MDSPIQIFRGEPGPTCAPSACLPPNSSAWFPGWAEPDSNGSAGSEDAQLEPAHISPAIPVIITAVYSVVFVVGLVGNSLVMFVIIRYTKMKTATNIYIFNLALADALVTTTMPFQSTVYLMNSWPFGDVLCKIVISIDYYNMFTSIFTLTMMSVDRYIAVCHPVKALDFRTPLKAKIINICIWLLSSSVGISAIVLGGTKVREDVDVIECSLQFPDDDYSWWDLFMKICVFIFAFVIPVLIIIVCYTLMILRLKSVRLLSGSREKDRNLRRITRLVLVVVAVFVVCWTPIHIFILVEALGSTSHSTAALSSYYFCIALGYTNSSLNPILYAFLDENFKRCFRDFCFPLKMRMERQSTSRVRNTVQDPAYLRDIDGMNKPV

CC1(C)CNC(=O)C[C@H](C(=O)N[C@@H](CCCNC(=N)N)C(=O)N[C@@H](CCCNC(=N)N)C(N)=O)NC(=O)[C@H](Cc2ccccc2)NC(=O)CNC(=O)[C@@H](NC(=O)[C@@H](N)Cc2ccc(O)cc2)CSS1 [DP-7-11, c(Tyr-SSa-Gly-Phe-D(Asp)-Arg-Arg)]
IC50 (KOP [1]; Forskolin 50 μM/well, 95% CI in brackets): 5.06 nM
IC80 (KOP [1]): 30 nM
cAMP response, HEK-KOP (KOP [1]): 13.73%
Mean cAMP response (FIG. 14) (KOP [2]): 56.14%
Naloxone reversal of cAMP inhibition through KOP (KOP [2]): reversed by naloxone

CC1(C)CNC(=O)C[C@@H](NC(=O)[C@@H](N)Cc2ccc(O)cc2)C(=O)NCC(=O)N[C@@H](Cc2ccccc2)C(=O)N[C@H](C(=O)N[C@@H](CCCNC(=N)N)C(=O)N[C@@H](CCCNC(=N)N)C(N)=O)CSS1 [DP-7-12, c(Tyr-D(Asp)-Gly-Phe-SSa-Arg-Arg)] (H-Y[dD]GFCRR-NH2; linker 2-5 via NHCH2CMe2S)
IC80 (KOP [1]): 28.8 nM
cAMP response, HEK-KOP (KOP [1]): 25.88%
Mean cAMP response (FIG. 14) (KOP [2]): 52.40%
Naloxone reversal of cAMP inhibition through KOP (KOP [2]): reversed by naloxone
